Test results: US20120308554A1, “VEGF-D/VEGFR2/3-MEDIATED REGULATION OF DENDRITES” (UNIVERSITAT HEIDELBERG, priority 2011, published 2012)

Columns and labels:
Format in all cases: cell-based, mice
hippocampal neurons = assay: Morphometric analyses (total dendritic length, Sholl analysis, spine density) of cultured hippocampal neurons; conditions: for total dendritic length and dendritic complexity (Sholl analysis): neurons expressing the construct versus control constructs
Description: Hippocampal neurons from newborn C57BL/6 mice were cultured as known in the art. Experiments were done after a culturing period of 10 to 14 days in vitro (DIV). DNA transfection was done on DIV8 using Lipofectamine 2000 (Invitrogen, San Diego, Calif.). For the studies on dendrite morphology, neurons were analyzed 4-5 days after transfection.
For 3D Sholl Analysis, total dendritic length and spine morphology were calculated using Object-Image freeware software with a specific set of macros (written by Dr. E. Ruthazer, McGill University, Quebec). Briefly, a z-Stack acquisition was imported, calibrated in Object-Image and manually traced. Total dendritic length was then computed. For Sholl analysis, the shell interval was set at 5 μm. All analyses were performed blind. In all in vitro experiments, for each condition, a minimum of 12 neurons from three independent preparations was analyzed. For the Golgi staining quantifications of 20 neurons for each condition from 4 different injected animals per viral construct were traced and analyzed.
Hippocampal neurons were fixed with 4% paraformaldehyde at room temperature for 20 min. For immunostaining, primary and secondary antibodies were applied in GDB buffer (30 mM phosphate buffer [pH7.4] containing 0.2% gelatin, 0.5% Triton X-100, and 0.9 M NaCl). For the morphometric analyses, fluorescence images were acquired using a confocal laser-scanning microscope TCS SP2 (Leica, Mannheim, Germany) equipped with an inverted fluorescence microscope DM IRE2 (Leica) and Leica confocal scan software. All images were obtained with sequential acquisition setting at a resolution of 1024×1024 pixels. Each image was a z series projection of images taken at 1 μm intervals.

[1] = tested on: VEGFD, VEGF, VEGFC and VEGFR3; assay: qRT-PCR analysis of shRNA knock-down of VEGF family members; conditions: hippocampal neurons infected with rAAV
Description: Total RNA was isolated at DIV10 to DIV13 from hippocampal primary neuron cultures or isolated brain tissues with Rneasy Mini Kit (Qiagen, Hilden, Germany) including an optional Dnase I treatment at room temperature for 15 min according to manufacturer's instructions (Qiagen). 1.2 μg of extracted RNA was reverse transcribed into first strand cDNA using High Capacity cDNA Reverse Transcription kit (Applied Biosystems, Foster City, Calif.). Quantitative reverse transcriptase PCR (qRT-PCR) was done on an ABI7300 thermal cycler using Universal qRT-PCR master mix with TaqMan Gene Expression Assays for the indicated genes (Applied Biosystems). The following TaqMan Gene Expression Assays were used in this study: Gusb (Mm00446953_m1), cFos (Mm00487425_m1), VEGFD (Mm00438965_m1), VEGFC (Mm01202432_m1), VEGF (Mm01281449_m1), VEGFR3 (Mm01292618_m1), beta-actin (Mm00607939_s1), beta-2 microglobulin (Mm00437762_m1), CBP (Mm01342435_m1), p38 MAPK alpha (Mm00442497_m1), p38 MAPK beta (Mm00440955_m1). Expression of target genes was normalized against the expression of Gusb as endogenous control gene. Data were derived from at least 5 independent experiments. For expression of shRNAs, an rAAV vector containing the U6 promoter for shRNA expression and a CaMKII promoter driving mCherry expression was used. Three different sequences were obtained from Open Biosystems ([…] 2 and […] 3), cloned and tested for silencing efficiency. […] As control, a scramble version of this sequence ([…] ID NO: 2) and the vector carrying only the mCherry ([…]) were used. Shp38alpha [NT] ID NO: 3), shp38beta [NT] ID NO: 4), […] ID NO: 5), […] ID NO: 6) and […] ID NO: 7; sequence obtained from Open Biosystems www.openbiosystems.com) were also cloned into the same vector. CBP expression level was knocked down using a pool of four short interfering RNAs (siRNAs) targeting mouse CBP (Accell siRNA SMARTpool; Thermo Scientific Dharmacon). The SMARTpool is a group of four siRNAs that have been screened to reduce a variety of potential off-target effects including the inclusion of miRNA (microRNA)-like seed motifs. Silencing of GAPDH was measured using Accell mouse GAPDH as a positive control, and as a negative control, a non-targeting Accell mouse siRNA pool was used. In addition, a fluorescently labeled non-targeting Accell mouse siRNA was also used to evaluate penetration efficiency in hippocampal neurons via immunocytochemistry. Briefly, 500 nM siRNAs were supplemented in the serum-free culturing medium at DIV8, and mRNA levels were analyzed at DIV13.

[2] = tested on: cultured hippocampal neurons; assay: Whole-cell patch clamp recordings of cultured hippocampal neurons
Description: Whole-cell patch clamp recordings were made at room temperature from cultured hippocampal neurons plated on coverslips secured with a platinum ring in a recording chamber (Open access chamber-1, Science Products GmbH, Hofheim, Germany) mounted on a fixed-stage upright microscope (BX51WI, Olympus, Hamburg, Germany). Differential interference contrast optics, infrared illumination and a CCD camera (PCO, Visitron Systems, Puchheim, Germany) connected to a contrast enhancement unit (Argus, Hamamatsu, Herrsching am Ammersee, Germany) were used to view neurons on a video monitor. Recordings were made with a Multiclamp 700A amplifier, digitized through a Digidata 1322A A/D converter and acquired using pClamp software (Molecular Devices, CA, USA). All membrane potentials have been corrected for the calculated junction potential of −11 mV (JPCalc program by Dr. Peter H. Barry). mEPSCs and whole-cell AMPA (10 μM, 6 ml/min, Biotrend) responses were recorded as known in the art except for the solutions and that a holding potential of −71 mV was used and both TTX (1 μM, Biotrend, Cologne, Germany) and gabazine (5 μM, Biotrend) were included in the ACSF. TTX was applied before gabazine to prevent the induction of action potential bursting. Access (range: 7-18 MU) and membrane resistance (see Table 1) were monitored before and after mEPSC recordings and data was rejected if changes greater than 20% occurred.
Patch electrodes (3-4 MU) were made from borosilicate glass (1.5 mm, WPI, Sarasota, Fla., USA) and filled with intracellular solution (containing in mM: KCH3SO4, 145; NaCl, 8; HEPES, 10; K2-phosphocreatine, 10; Mgt-ATP, 4; Na3-GTP, 0.3; pH 7.35 with KOH). The extracellular solution was an artificial cerebrospinal fluid (ACSF, in mM: NaCl, 125; KCl, 3.5; MgCl2, 1.3; NaH2PO4, 1.2; CaCl2, 2.4; glucose, 25; NaHCO3, 26; gassed with 95% O2 and 5% CO2).

VEGFD = assay: qRT-PCR analysis of VEGFD expression in hippocampal neurons
Description: Total RNA was isolated at DIV10 to DIV13 from hippocampal primary neuron cultures or isolated brain tissues with Rneasy Mini Kit (Qiagen, Hilden, Germany) including an optional Dnase I treatment at room temperature for 15 min according to manufacturer's instructions (Qiagen). 1.2 μg of extracted RNA was reverse transcribed into first strand cDNA using High Capacity cDNA Reverse Transcription kit (Applied Biosystems, Foster City, Calif.).
Quantitative reverse transcriptase PCR (qRT-PCR) was done on an ABI7300 thermal cycler using Universal qRT-PCR master mix with TaqMan Gene Expression Assays for the indicated genes (Applied Biosystems). The following TaqMan Gene Expression Assays were used in this study: Gusb (Mm00446953_m1), cFos (Mm00487425_m1), VEGFD (Mm00438965_m1), VEGFC (Mm01202432_m1), VEGF (Mm01281449_m1), VEGFR3 (Mm01292618_m1), beta-actin (Mm00607939_s1), beta-2 microglobulin (Mm00437762_m1), CBP (Mm01342435_m1), p38 MAPK alpha (Mm00442497_m1), p38 MAPK beta (Mm00440955_m1). Expression of target genes was normalized against the expression of Gusb as endogenous control gene. Data were derived from at least 5 independent experiments.

shVEGFC: shRNA specific for VEGFC (GTTCATTCCATTATTAGAC; SEQ ID NO: 6) [reference compound]
total dendritic length and dendritic complexity (Sholl analysis) (hippocampal neurons): had no effect on dendrite length or complexity
mRNA levels of respective targets [1]: reduced mRNA levels of their respective targets

shSCR: scramble version of the shVEGFD sequence (GTGCCAAGACGGGTAGTCA; SEQ ID NO: 2), control [reference compound]
spine density (number of spines/20 μm) (hippocampal neurons; transfected hippocampal neurons): 6.17±0.56 spines/20 μm
AP induc thresh (current injection required to induce an action potential) ([2]; infected neurons): 116 ± 10 pA
AP thresh (membrane potential at which action potentials initiate) ([2]; infected neurons): −48.4 ± 1.0 mV
Cm (membrane capacitance) ([2]; infected neurons): 102.4 ± 4.4 pF
Rm (membrane resistance) ([2]; infected neurons): 275 ± 15 MΩ
Vrest (resting membrane potential) ([2]; infected neurons): −78.7 ± 1.7 mV
mEPSC τ decay ([2]; infected neurons): 5.70 ± 0.12 ms
mEPSC τ rise ([2]; infected neurons): 3.36 ± 0.07 ms
AP induc thresh (current injection required to induce an action potential) ([2]; transfected neurons): 125 ± 13 pA
AP thresh (membrane potential at which action potentials initiate) ([2]; transfected neurons): −44.1 ± 1.6 mV
Cm (membrane capacitance) ([2]; transfected neurons): 88.6 ± 5.5 pF
Rm (membrane resistance) ([2]; transfected neurons): 291 ± 32 MΩ
Vrest (resting membrane potential) ([2]; transfected neurons): −76.5 ± 2.3 mV
mEPSC τ decay ([2]; transfected neurons): 6.06 ± 0.07 ms
mEPSC τ rise ([2]; transfected neurons): 3.18 ± 0.14 ms

C[C@]12N[C@H](Cc3ccccc31)c1ccccc12 [MK801, reference compound]
VEGFD expression (qRT-PCR) (VEGFD): significantly reduced the expression of VEGFD mRNA

shVEGFR3: shRNA specific for VEGFR3 (CCCAGTATTGTGTGGTACAAA; SEQ ID NO: 7)
total dendritic length and dendritic complexity (Sholl analysis) (hippocampal neurons): changes in the dendritic structure that were virtually identical to those obtained in hippocampal neurons transfected with pAAV-shVEGFD
mRNA levels of respective targets [1]: reduced mRNA levels of their respective targets

shVEGF: shRNA specific for VEGF (ACCTCACCAAAGCCAGCAC; SEQ ID NO: 5) [reference compound]
total dendritic length and dendritic complexity (Sholl analysis) (hippocampal neurons): had no effect on dendrite length or complexity
mRNA levels of respective targets [1]: reduced mRNA levels of their respective targets

B1: CaMKIVK75E: dominant negative mutant of CaMKIV (protein, UniProt P08414 1-469, looked up, variant K75E)
Calcium/calmodulin-dependent …: MLKVTVPSCPSSPCSSVTASTENLVPDYWIDGSNRDPLGDFFEVESELGRGATSIVYRCKQKGTQKPYALKVLKETVDKKIVRTEIGVLLRLSHPNIIKLKEIFETPTEISLVLELVTGGELFDRIVEKGYYSERDARDAVKQILEAVAYLHENGIVHRDLKPENLLYATPAPDAPLKIADFGLSKIVEHQVLMKTVCGTPGYCAPEILRGCAYGPEVDMWSVGIITYILLCGFEPFYDERGDQFMFRRILNCEYYFISPWWDEVSLNAKDLVKKLIVLDPKKRLTTFQALQHPWVTGKAANFVHMDTAQKKLQEFNARRKLKAAVKAVVASSRLGSASSSHTSIQENHKASSDPPSTQDAKDSTDLLGKKMQEEDQEEDQVEAEASADEMRKLQSEEVEKDAGVKEEETSSMVPQDPEDELETDDPEMKRDSEEKLKSVEEEMDPMTEEEAPDAGLGVPQQDAIQPEY
VEGFD mRNA levels (VEGFD; hippocampal neurons infected with rAAV): significantly lower
